Measurements reported in US20080305978A1, “Cleaning compositions containing a hydrophilic fragrance” (S.C. Johnson & Son, Inc., priority 2007, published 2008).

What was measured:
[1] = Characteristics of fragrance components in words (vapor pressure, water solubility, oxidation); format: physicochemical
From the text: This test evaluated properties of fragrances with different levels of water solubility with regard to their effect on contributing to streaking/blooming.

[2] = Table 5; cited from earlier work

Row | Compound | Characteristics: vapor pressure ([1]; Table 5, in words) | Characteristics: water solubility ([1]; Table 5, in words) | Water Solubility ([1]; Table 6, in words) | Vapor Pressure mm/Hg [2] [mm/Hg] | Water Solubility ([1]; text b58, in words) | Characteristics: oxidation ([1]; Table 5, in words)
1 | C=CC(C)CCCC(C)(C)O (stereo not drawn) [Dihydromyrcenol] | (1) Fairly high | (2) Reasonable | Medium | 0.7 |  | 
2 | CCOC(=O)CC1(C)OCCO1 [Applinal = Fructone, Applinal] |  | High water | High |  | high | 
3 | CC(C=O)Cc1ccc(C(C)(C)C)cc1 (stereo not drawn) [Lilial] | (1) Low vapor | (3) Low water | Low | 0.004 |  | (2) Easily oxidized
